Experimental data: ChEMBL document CHEMBL4376846, “Peptide-β-lactam Inhibitors of Dengue and West Nile Virus NS2B-NS3 Protease Display Two Distinct Binding Modes” (J Med Chem, 2020)
Activity calls are given as the source filed them. No cut-off for these calls is given here. Peptide text beside a SMILES is read from it. * marks the point of attachment. Bz = O=C(c1ccccc1)*

Tests used:
[1] = target: Genome polyprotein (dengue virus type 2) (UniProt P29990); assay: Inhibition of Dengue virus NS2B-NS3 protease at 50 uM using 2-Abz-Nle-Lys-Arg-Arg-Ser-(3-NO2)-Tyr-NH2 FRET substrate preincubated for 15 mins followed by substrate addition measured after 15 mins by fluorimetric analysis relative to control
[2] = target: Genome polyprotein (West Nile virus) (UniProt P06935); assay: Inhibition of West Nile virus NS2B-NS3 protease at 50 uM using 2-Abz-Nle-Lys-Arg-Arg-Ser-(3-NO2)-Tyr-NH2 FRET substrate preincubated for 15 mins followed by substrate addition measured after 15 mins by fluorimetric analysis relative to control
Genome polyprotein [3] = target: Genome polyprotein (West Nile virus, UniProt P06935); assay: Inhibition of West Nile virus NS2B-NS3 protease using 2-Abz-Nle-Lys-Arg-Arg-Ser-(3-NO2)-Tyr-NH2 FRET substrate preincubated for 15 mins followed by substrate addition measured after 15 mins by fluorimetric analysis
Genome polyprotein [4] = target: T1, Genome polyprotein (dengue virus type 2, UniProt P29990); assay: Substrate activity at Dengue virus NS2B-NS3 protease assessed as time taken for peptide cleavage at 100 uM incubated for 11 hrs by HPLC-ESI/MS analysis; format: ADME
Genome polyprotein [5] = target: T1, Genome polyprotein; assay: Inhibition of Dengue virus NS2B-NS3 protease using 2-Abz-Nle-Lys-Arg-Arg-Ser-(3-NO2)-Tyr-NH2 FRET substrate preincubated for 15 mins followed by substrate addition measured after 15 mins by fluorimetric analysis
[6] = target: Genome polyprotein (dengue virus type 2) (UniProt P29990); assay: Binding affinity to Dengue virus NS2B-NS3 protease assessed as presence of lysine and benzyloxy-phenylglycine residues in active site
dengue virus type 2 [7] = assay: Binding affinity to Dengue virus serotype 2 […]-NS3 protease S135A mutant expressed in Escherichia coli BL21 lambda (DE3) cells assessed as effect on intrinsic fluorescence of tryptophan at active site up to 20 uM by tryptophan quenching assay
[8] = target: Genome polyprotein (dengue virus type 2) (UniProt P29990); assay: Competitive inhibition of Dengue virus NS2B-NS3 protease assessed as increase in intrinsic fluorescence of tryptophan at active site up to 20 uM measured after 5 mins by tryptophan quenching assay
[9] = target: Prothrombin (Homo sapiens) (UniProt P00734); assay: Inhibition of thrombin (unknown origin) at 50 uM using Boc-Val-Pro-Arg-AMC as substrate preincubated for 15 mins followed by substrate addition measured after 10 mins by fluorimetric analysis relative to control
Trypsin (Homo sapiens) = Trypsin (Homo sapiens) (UniProt P07477+P07478+P35030); assay: Inhibition of trypsin (unknown origin) at 50 uM using Boc-Val-Pro-Arg-AMC as substrate preincubated for 15 mins followed by substrate addition measured after 10 mins by fluorimetric analysis relative to control; format: protein assay
Huh-7 = assay: Cytotoxicity against human HuH7 cells infected with Dengue virus serotype 2 assessed as effect on cell viability up to 50 uM after 48 hrs by Celltiter-blue assay; format: cell-based; details: huh-7, 48 h
dengue virus type 2 [10] = assay: Antiviral activity against Dengue virus serotype 2 infected in HuH7 cells assessed as reduction in viral titer after 48 hrs by plaque assay; format: functional, organism-based; details: Huh-7, 48 h
[11] = target: Genome polyprotein (dengue virus type 2) (UniProt P29990); assay: Competitive inhibition of Dengue virus NS2B-NS3 protease assessed as increase in intrinsic fluorescence of tryptophan at active site at 20 to 60 uM measured after 5 mins in presence of quencher by tryptophan quenching assay
[12] = target: Genome polyprotein (dengue virus type 2) (UniProt P29990); assay: Competitive inhibition of Dengue virus NS2B-NS3 protease assessed as increase in intrinsic fluorescence of tryptophan at active site measured after 5 mins in presence of quencher by tryptophan quenching assay
[13] = target: Genome polyprotein (dengue virus type 2) (UniProt P29990); assay: Reversible inhibition of Dengue virus NS2B-NS3 protease assessed as increase in intrinsic fluorescence of tryptophan at active site at 60 uM pretreated for 16 hrs followed by quencher addition measured after 5 mins by tryptophan quenching assay
[14] = target: Genome polyprotein (dengue virus type 2) (UniProt P29990); assay: (§1) Reversible inhibition of Dengue virus NS2B-NS3 protease at 60 uM preincubated for 3 to 6 hrs followed by 2-Abz-Nle-Lys-Arg-Arg-Ser-(3-NO2)-Tyr-NH2 FRET substrate addition followed by further compound dilution to 1.7 uM and measured every 30 mins for 2 hrs by dilution experiment based fluorimetric analysis
[15] = target: Genome polyprotein (dengue virus type 2) (UniProt P29990); assay: as §1, with “Time dependent irreversible” for “Reversible”
dengue virus type 2 [16] = assay: Binding affinity to Dengue virus serotype 2 […]-NS3 protease S135A mutant expressed in Escherichia coli BL21 lambda (DE3) cells assessed as effect on intrinsic fluorescence of tryptophan at active site at 20 to 60 uM measured after 5 mins in presence of quencher by tryptophan quenching assay

SMILES	inhibition [1] [%]	inhibition [2] [%]	IC50 (Genome polyprotein [5]) [µM]	inhibition (Trypsin (Homo sapiens)) [%]	other results
CCCC[C@H](NC(=O)[C@H](CCCCN)NC(=O)c1ccccc1)C(=O)N[C@H]1CN(c2ccccc2)C1=O	< 20	< 20	–	–	–
N=C(N)NCCC[C@H](NC(=O)c1ccccc1)C(=O)N[C@@H](CCCCN)C(=O)N[C@H]1CN(c2ccccc2)C1=O	57.1	81.4	–	–	IC50 (Genome polyprotein [3]): 22.5 µM
N=C(N)NCCC[C@H](NC(=O)c1ccccc1)C(=O)N[C@@H](CCCCN)C(=O)N[C@@H](C(N)=O)c1ccc(OCc2ccccc2)cc1	–	–	–	–	Time (Genome polyprotein [4]): 7 h
Cc1ccc(N2C[C@H](NC(=O)[C@H](NC(=O)[C@H](CCCCN)NC(=O)[C@H](CCCNC(=N)N)NC(=O)c3ccccc3)c3ccc(OCc4ccccc4)cc3)C2=O)cc1	95.9	60.3	2.7	–	–
NCCCC[C@H](NC(=O)c1ccccc1)C(=O)N[C@@H](CCCCN)C(=O)N[C@H]1CN(c2ccccc2)C1=O	< 20	< 20	–	–	–
N=C(N)NCCC[C@H](NC(=O)c1ccccc1)C(=O)N[C@@H](CCCCN)C(=O)N[C@@H](C(=O)N[C@H]1CN(c2cccc(F)c2)C1=O)c1ccc(OCc2ccccc2)cc1	96.8	64.1	1.9	–	–
N=C(N)NCCC[C@H](NC(=O)c1ccccc1)C(=O)N[C@@H](CCCCN)C(=O)O (Bz-Arg-Lys-OH)	–	–	–	–	Activity [6]: Active
COc1cccc(COc2ccc([C@@H](NC(=O)[C@H](CCCCN)NC(=O)[C@H](CCCNC(=N)N)NC(=O)c3ccc(-c4cccs4)s3)C(N)=O)cc2)c1	–	–	–	–	Activity (dengue virus type 2 [7]): Active; inhibition [8]: Active
N=C(N)NCCC[C@H](NC(=O)c1ccccc1)C(=O)N[C@@H](CCCCN)C(=O)N[C@@H]1CN(c2ccccc2)C1=O	71.6	27.8	17.7	–	–
Cc1ccc(N2C[C@@H](NC(=O)[C@H](NC(=O)[C@H](CCCCN)NC(=O)[C@H](CCCNC(=N)N)NC(=O)c3ccccc3)c3ccc(OCc4ccccc4)cc3)C2=O)cc1	73.5	52.9	15.9	< 20	inhibition [9]: < 20%
CCCC[C@H](NC(=O)[C@H](CCCCN)NC(=O)c1ccccc1)C(=O)N[C@@H]1CN(c2ccccc2)C1=O	< 20	24.4	–	> 20	–
N=C(N)NCCC[C@H](NC(=O)c1ccccc1)C(=O)N[C@@H](CCCCN)C(=O)N[C@@H](C(=O)N[C@@H]1CN(c2ccc(F)cc2)C1=O)c1ccc(OCc2ccccc2)cc1	65.5	43.4	–	< 20	inhibition [9]: < 20%
N=C(N)NCCC[C@H](NC(=O)[C@H](CCCCN)NC(=O)c1ccccc1)C(=O)N[C@@H]1CN(c2ccccc2)C1=O	< 20	< 20	–	–	–
N=C(N)NCCC[C@H](NC(=O)c1ccccc1)C(=O)N[C@@H](CCCCN)C(=O)N[C@@H](C(=O)N[C@H]1CN(c2ccc(F)cc2)C1=O)c1ccc(OCc2ccccc2)cc1	96.3	60.9	2.5	–	Activity (Huh-7): Non-Toxic; EC50 (dengue virus type 2 [10]): 4.1 µM
CCCC[C@H](NC(=O)[C@H](CCCNC(=N)N)NC(=O)c1ccccc1)C(=O)N[C@H]1CN(c2ccccc2)C1=O	< 20	< 20	–	> 20	–
Cc1cccc(N2C[C@H](NC(=O)[C@H](NC(=O)[C@H](CCCCN)NC(=O)[C@H](CCCNC(=N)N)NC(=O)c3ccccc3)c3ccc(OCc4ccccc4)cc3)C2=O)c1	96.5	46.8	2.8	–	–
N=C(N)NCCC[C@H](NC(=O)c1ccccc1)C(=O)N[C@@H](CCCCN)C(=O)N[C@@H](C(=O)N[C@H]1CN(c2ccccc2)C1=O)c1ccc(OCc2ccccc2)cc1	96	60.1	2.3	–	inhibition [11]: Active; inhibition [12]: Dose-dependent effect; inhibition [13]: Active; inhibition [14]: inactive; inhibition [15]: inactive; Activity (dengue virus type 2 [16]): inactive; Activity (Huh-7): Non-Toxic; EC50 (dengue virus type 2 [10]): 11.7 µM; Time (Genome polyprotein [4]): 14 h
N=C(N)NCCC[C@H](NC(=O)[C@H](CCCCN)NC(=O)c1ccccc1)C(=O)N[C@H]1CN(c2ccccc2)C1=O	< 20	< 20	–	–	–
N=C(N)NCCC[C@H](NC(=O)c1ccccc1)C(=O)N[C@@H](CCCCN)C(=O)N[C@@H](C(=O)N[C@@H]1CN(c2ccccc2)C1=O)c1ccc(OCc2ccccc2)cc1	68.8	46.9	–	< 20	inhibition [9]: < 20%
N[C@@H](C(=O)N[C@H]1CN(c2ccccc2)C1=O)c1ccc(OCc2ccccc2)cc1	–	–	–	–	Activity [6]: Active
NCCCC[C@H](NC(=O)c1ccccc1)C(=O)N[C@@H](CCCCN)C(=O)N[C@@H]1CN(c2ccccc2)C1=O	39.7	51.7	–	> 20	–
N=C(N)NCCC[C@H](NC(=O)c1ccccc1)C(=O)N[C@@H](CCCCN)C(=O)N[C@@H](C(=O)N[C@@H]1CN(c2cccc(F)c2)C1=O)c1ccc(OCc2ccccc2)cc1	80.8	61.6	12.4	< 20	inhibition [9]: < 20%
CCCC[C@H](NC(=O)[C@H](CCCNC(=N)N)NC(=O)c1ccccc1)C(=O)N[C@@H]1CN(c2ccccc2)C1=O	< 20	< 20	–	–	–
Cc1cccc(N2C[C@@H](NC(=O)[C@H](NC(=O)[C@H](CCCCN)NC(=O)[C@H](CCCNC(=N)N)NC(=O)c3ccccc3)c3ccc(OCc4ccccc4)cc3)C2=O)c1	77.7	45.1	16.4	< 20	inhibition [9]: < 20%
